Reference: patent publication US20230346735A1, “Nutritional Composition Comprising Carnitine and Method for Treating or Preventing an Infection in a Mammal” (priority 2020, published 2023)
“Also recorded” adds a separate entry of the source. Marks after values point to notes of the source that are not given here.

How the values were obtained:
TMPRSS2 = TMPRSS2 mRNA expression in Calu-3, RT real-time PCR; type: cell-based, human; details: 24 hr
Protocol: To quantify the human gene expression, Calu-3 seeded in a 12-well plate (220,000 cells) were stimulated with 100 uM, 500 uM and 1000 uM Carnitine alone for 24 h. RNA was extracted using TRIzol (Qiagen) as per standard protocol and total RNA was reverse transcribed using SuperScript II RT (Invitrogen). Expression levels of ACE-2 and TMPRSS2 were evaluated by SYBR real-time PCR using gene-specific primers as previously reported (Ma et al., Eye 2020;34:1212). GAPDH was used as an internal normalizer. […] Fold change in expression relative to that in untreated cells was determined using the standard ddCt method.

ACE-1 [1] = experiment: Human study, serum ELISA, ACE-1; type: in vivo; details: 2 g daily L-carnitine tartrate, 5 weeks, before or after exercise challenge
Protocol: (§1) A human study was run with a total of 80 healthy male and female subjects ranging from 21 to 65 years of age, who were active (i.e. 30 minutes per day of moderate activity, 3 days per week) are randomized into two groups. […] Seventy-three subjects completed the trial and biomarker data were analyzed from the sera of the 73 completers. Sera were collected for analysis of C-Reactive Protein (CRP), ACE 1, ACE 2, TMPRSS 2, the Tumor Necrosis Factor alpha (TNF-alpha), and Furin at baseline in the beginning of the trial, at week 5 and 48 hr after an exercise challenge as described (Clinicaltrials.gov NCT04420377). The exercise challenge serves as surrogate to the inflammation stimulus.
(§2) To obtain human sera, venous blood was extracted by venipuncture of the antecubital vein using a 21-gauge syringe and collected into a 10 mL EDTA vacutainer tube (BD Vacutainer®, Becton, Dickinson and Company, Franklin Lakes, NJ) by a certified phlebotomist. […] Human ACE-1, ACE-2, TMPRSS2, Furin, CRP and TNF-alpha protein levels were assessed using commercially available ELISA kits, according the manufacturer recommendations, ACE-1 (R&D systems Inc., Minneapolis, MN, USA), ACE-2 (RayBiotech inc., Peachtree Corners, GA), TMPRSS2 (Novus Biologicals, Littleton, CO), CRP (R&D Systems Inc., Minneapolis, MN), TNF-alpha (Novus Biologicals, Littleton, CO), and Furin (Sigma Aldrich, St. Louis, MO). […]

catalase = experiment: Antioxidant capacity: catalase in exercised rats; type: in vivo, rat; details: 6 weeks
Protocol: (§3) Fifty-six (56) Male Wistar rats that were 8-week old were obtained. The rats were reared at the temperature of 22 ± 2° C., the humidity of 55 ± 5%, and with a 12-hrs light-12-hrs dark cycle. All procedures involving rats were conducted in strict compliance with the relevant laws, the Animal Welfare Act, Public Health Services Policy, and guidelines established by the Institutional Animal Care and Use Committee of the Institute of the contracted University which completed the study.
(§4) After a week of the adaptation period, the rats were divided into eight equal groups containing seven rats each. The initial body weights of the rats were similar in all the groups (214.53 grams ± 4.67; P > 0.05).
(§5) Groups 1 and 2 were not subjected to an exercise routine. Groups 3-8 were subjected to an exercise regimen consisting of a week training period with an incremental exercise capacity described below. After the week training period the exercise regimen followed was each rat in Groups 3-8 were subjected to 6 weeks of running at 25 m/min during 45 min […]. […] These correspond to 0, 250, 500, 1000, 2000 and 4000 mg per day for humans, respectively.
(§6) The exercised rats were subjected to treadmill exercise on a motorized rodent treadmill (Commat Limited, Ankara, Turkey). The treadmill contained a stimulus grid at the back end of the treadmill giving an electric shock when the animal placed its paw on the grid. […] To eliminate the diurnal variations, all exercise tests were applied during the same time of the day. The week of training period was provided as pre-training practice for the animals to get familiar with the treadmill equipment and handling. In doing so, the rats in the exercise training groups were accustomed by treadmill exercise over 5 days such that: (i) 1st day, 10 m/min for 10 min, (ii) 2nd day, 20 m/min for 10 min, (iii) 3rd day, 25 m/min for 10 min, (iv) 4th day, 25 m/min for 20 min and (v) 5th day, 25 m/min for 30 min. After the training period, the rats in treadmill exercise groups ran on the treadmill 25 m/min for 45 min/ per day and five days per week for 6 weeks according to the protocol described by Sahin et al. Capsaicinoids Improve the Consequences of Physical Activity. Toxicol Rep. 2018;5:598-607, which is hereby incorporated by reference.
(§7) The exercise regimen was used to induce an inflammation and oxidative stress conditions. […] The results of malondialdehyde, superoxide dismutase, catalase, and glutathione peroxidase for each rat group are shown in TABLE 2.

Calu-3 cells = type: cell-based, human; details: Calu-3, 50 uM to 10 mM, 24 h, 48 h or 72 h
Protocol: Calu-3 cells were maintained in 50% DMEM (Dulbecco’s Modified Eagle Medium) + 50% Ham’s F12 media supplemented with 10% FBS (fetal bovine serum) and 1% penicillin/streptomycin. Vero E6 cells were maintained in DMEM media supplemented with 10% FBS and 1% penicillin/streptomycin.
Calu-3 seeded in a 96-well plate (30,000 cells) were stimulated with 50 uM, 100 uM, 250 uM, 500 uM, 1 mM and 10 mM Carnitine alone. At 24 h, 48 h or 72 h post stimulation, media was removed and cells were subjected to a standard MTT assay.

C-Reactive Protein (CRP) = experiment: Human study, serum ELISA, CRP; type: in vivo
Protocol: as §1, §2

ACE-1 [2] = experiment: ACE-1 mRNA expression in Calu-3, RT real-time PCR; type: cell-based, human; details: Calu-3, 50 to 1,000 uM, 24 hr pre-treatment
superoxide dismutase = experiment: Antioxidant capacity: superoxide dismutase in exercised rats; type: in vivo, rat; details: 6 weeks
Protocol: as §3, §4, §5, §6, §7

[3] = Car200: 200 mg/kg oral gavage, no exercise
[4] = Ex+Car25: exercise, 25 mg/kg oral gavage
[5] = Ex+Car50: exercise, 50 mg/kg oral gavage
[6] = Ex+Car100: exercise, 100 mg/kg oral gavage
[7] = Ex+Car200: exercise, 200 mg/kg oral gavage
[8] = Ex+Car400: exercise, 400 mg/kg oral gavage

SMILES: C[N+](C)(C)C[C@H](O)CC(=O)[O-] [L-carnitine]
- TMPRSS2 mRNA decrease (TMPRSS2; Calu-3, 500 uM): at least 75%
- TMPRSS2 mRNA increase (TMPRSS2; Calu-3, between 50-100 uM): 1.5-4 fold
- ACE-1 serum levels (ACE-1 [1]): no significant effect; also recorded: no significant interaction or main effect
- CAT (catalase; [3]): 147.19±2.01^de U/mg protein
- CAT (catalase; [4]): 144.55±3.21^de U/mg protein
- CAT (catalase; [5]): 152.72±2.50^cd U/mg protein
- CAT (catalase; [6]): 162.11±1.97^bc U/mg protein
- CAT (catalase; [7]): 170.77±2.57^b U/mg protein
- CAT (catalase; [8]): 186.10±2.50^a U/mg protein
- cytotoxicity (MTT) (Calu-3 cells): did not show any cytotoxic properties
- plasma CRP concentration, mean diff Group A versus Group B (C-Reactive Protein (CRP); at 48 hr-Post, p<0.005): -0.55 mg/L
- serum CRP levels (C-Reactive Protein (CRP); from baseline after 5 weeks of supplementation, compared to placebo group): significantly lower
- ACE-1 mRNA levels (ACE-1 [2]): didn’t not change
- SOD (superoxide dismutase; [3]): 95.87±2.47^cd U/mg protein
- SOD (superoxide dismutase; [4]): 96.49±0.78^cd U/mg protein
- SOD (superoxide dismutase; [5]): 102.89±2.69^bc U/mg protein
- SOD (superoxide dismutase; [6]): 109.68±2.49^ab U/mg protein
- SOD (superoxide dismutase; [7]): 114.56±2.70^a U/mg protein
- SOD (superoxide dismutase; [8]): 120.16±3.58^a U/mg protein
